For 34 molecules, melting point results are on record in patent US20050043315A1, “Aminopyrimidine compounds, processes for their preparation and pharmaceutical compositions containing them” (priority 2002, published 2005).

A word on the melting point: it is the temperature of the solid-liquid transition.

For `CC(C)CCOc1cccc(-c2nc(N)ncc2-c2ccc(=O)n(C(C)C)n2)c1` [Example 205, 6-{2-Amino-4-[3-(isopentyloxy)phenyl]-5-pyrimidinyl}-2-isopropyl-3(2H)-pyridazinone], the melting point came out at 97 °C.

`CCCCCCOc1ccc(-c2nc(N)ncc2-c2ccc(=O)n(C(C)C)n2)cc1` [Example 206, 6-{2-Amino-4-[4-(hexyloxy)phenyl]-5-pyrimidinyl}-2-isopropyl-3(2H)-pyridazinone] showed a melting point of 184 °C.

For `CCCCCCOc1ccccc1-c1nc(N)ncc1-c1ccc(=O)n(C(C)C)n1` [Example 207, 6-{2-Amino-4-[2-(hexyloxy)phenyl]-5-pyrimidinyl}-2-isopropyl-3(2H)-pyridazinone], the melting point came out at 92 °C.

Regarding `CCCCCCOc1cccc(-c2nc(N)ncc2-c2ccc(=O)n(C(C)C)n2)c1` [Example 208, 6-{2-Amino-4-[3-(hexyloxy)phenyl]-5-pyrimidinyl}-2-isopropyl-3(2H)-pyridazinone], the melting point was 121 °C.

`CC(C)n1nc(-c2cnc(N)nc2-c2ccc(OCCF)cc2)ccc1=O` [Example 209, 6-{2-Amino-4-[4-(2-fluoroethoxy)phenyl]-5-pyrimidinyl}-2-isopropyl-3(2H)-pyridazinone] showed a melting point of 200 °C.

Regarding `CC(C)n1nc(-c2cnc(N)nc2-c2ccccc2OCCF)ccc1=O` [Example 210, 6-{2-Amino-4-[2-(2-fluoroethoxy)phenyl]-5-pyrimidinyl}-2-isopropyl-3(2H)-pyridazinone], the melting point turned out to be 171 °C.

With `CC(C)n1nc(-c2cnc(N)nc2-c2cccc(OCCF)c2)ccc1=O` [Example 211, 6-{2-Amino-4-[3-(2-fluoroethoxy)phenyl]-5-pyrimidinyl}-2-isopropyl-3(2H)-pyridazinone], the melting point is 123 °C.

`CC(C)n1nc(-c2cnc(N)nc2-c2ccccc2OCCCF)ccc1=O` [Example 215, 6-{2-Amino-4-[2-(3-fluoropropoxy)phenyl]-5-pyrimidinyl}-2-isopropyl-3(2H)-pyridazinone] returned a melting point of 200 °C.

With `CC(C)n1nc(-c2cnc(N)nc2-c2cccc(OCCCF)c2)ccc1=O` [Example 216, 6-{2-Amino-4-[3-(3-fluoropropoxy)phenyl]-5-pyrimidinyl}-2-isopropyl-3(2H)-pyridazinone], the melting point is 123 °C.

`CC(C)n1nc(-c2cnc(N)nc2-c2ccc(OCCN(C)C)cc2)ccc1=O` [Example 217, 6-(2-amino-4-{4-(2-(dimethylamino)ethoxy]phenyl}-5-pyrimidinyl)-2-isopropyl-3(2H)-pyridazinone] yielded a melting point of 162 °C.

As to `CC(C)n1nc(-c2cnc(N)nc2-c2ccccc2OCCN(C)C)ccc1=O` [Example 218, 6-(2-Amino-4-{2-[2-(dimethylamino)ethoxy]phenyl}-5-pyrimidinyl)-2-isopropyl-3(2H)-pyridazinone], the melting point stood at 198 °C.

Consider `CC(C)n1nc(-c2cnc(N)nc2-c2cccc(OCCN(C)C)c2)ccc1=O` [Example 219, 6-(2-Amino-4-{3-[2-(dimethylamino)ethoxy]phenyl}-5-pyrimidinyl)-2-isopropyl-3(2H)-pyridazinone], for which the melting point came out at 111 °C.

The molecule `CC(C)n1nc(-c2cnc(N)nc2-c2ccc(OCCN3CCOCC3)cc2)ccc1=O` [Example 220, 6-(2-Amino-4-{4-[2-(4-morpholinyl)ethoxy]phenyl}-5-pyrimidinyl)-2-isopropyl-3(2H)-pyridazinone] came in with a melting point of 161 °C.

Molecule `CC(C)n1nc(-c2cnc(N)nc2-c2ccccc2OCCN2CCOCC2)ccc1=O` [Example 221, 6-(2-Amino-4-{2-[2-(4-morpholinyl)ethoxy]phenyl}-5-pyrimidinyl)-2-isopropyl-3(2H)-pyridazinone] registered a melting point of 115 °C.

The molecule `CC(C)n1nc(-c2cnc(N)nc2-c2cccc(OCCN3CCOCC3)c2)ccc1=O` [Example 222, 6-(2-Amino-4-{3-[2-(4-morpholinyl)ethoxy]phenyl}-5-pyrimidinyl)-2-isopropyl-3(2H)-pyridazinone] had a melting point of 68 °C.

As for `CC(C)n1nc(-c2cnc(N)nc2-c2ccc(Br)cc2)ccc1=O` [Example 235, 6-[2-Amino-4-(4-bromophenyl)-5-pyrimidinyl]-2-isopropyl-3(2H)-pyridazinone], the melting point was determined as 204 °C.

The molecule `CC(C)n1nc(-c2cnc(N)nc2-c2cccc(Br)c2)ccc1=O` [Example 236, 6-[2-Amino-4-(3-bromophenyl)-5-pyrimidinyl]-2-isopropyl-3(2H)-pyridazinone] showed a melting point of 238 to 240 °C.

As to `CC(C)n1nc(-c2cnc(N)nc2-c2c(F)cccc2F)ccc1=O` [Example 237, 6-[2-Amino-4-(2,6-difluorophenyl)-5-pyrimidinyl]-2-isopropyl-3(2H)-pyridazinone], the melting point worked out at 244 °C.

Molecule `CC(C)n1nc(-c2cnc(N)nc2-c2cc(F)cc(F)c2)ccc1=O` [Example 238, 6-[2-Amino-4-(3,5-difluorophenyl)-5-pyrimidinyl]-2-isopropyl-3(2H)-pyridazinone] gave a melting point of 234 °C.

`CC(C)n1nc(-c2cnc(N)nc2-c2c(Cl)cccc2Cl)ccc1=O` [Example 239, 6-[2-Amino-4-(2,6-dichlorophenyl)-5-pyrimidinyl]-2-isopropyl-3(2H)-pyridazinone] returned a melting point of 208 °C.

`Cc1cccc(C)c1-c1nc(N)ncc1-c1ccc(=O)n(C(C)C)n1` [Example 240, 6-[2-Amino-4-(2,6-dimethylphenyl)-5-pyrimidinyl]-2-isopropyl-3(2H)-pyridazinone] showed a melting point of 212 °C.

Turning to `CC(C)n1nc(-c2cnc(N)nc2-c2ccoc2)ccc1=O` [Example 241, 6-[2-Amino-4-(3-furyl)-5-pyrimidinyl]-2-isopropyl-3(2H)-pyridazinone], the melting point was found to be 216 °C.

`CC(C)n1nc(-c2cnc(N)nc2-c2ccsc2)ccc1=O` [Example 242, 6-[2-Amino-4-(3-thienyl)-5-pyrimidinyl]-2-isopropyl-3(2H)-pyridazinone] displayed a melting point of 234 °C.

Turning to `COc1cccc(OC)c1-c1nc(N)ncc1-c1ccc(=O)n(C(C)C)n1` [Example 243, 6-[2-Amino-4-(2,6-dimethoxyphenyl)-5-pyrimidinyl]-2-isopropyl-3(2H)-pyridazinone], the melting point was 260 °C.

`Cn1nc(-c2cnc(N)nc2-c2ccoc2)ccc1=O` [Example 244, 6-[2-Amino-4-(3-furyl)-5-pyrimidinyl]-2-methyl-3(2H)-pyridazinone]: the melting point came out at 241 °C.

In turn, `Cn1nc(-c2cnc(N)nc2-c2ccsc2)ccc1=O` [Example 245, 6-[2-Amino-4-(3-thienyl)-5-pyrimidinyl]-2-methyl-3(2H)-pyridazinone] came in with a melting point of 252 °C.

`CN(C)c1ncc(-c2ccc(=O)n(C)n2)c(-c2ccc(Cl)cc2)n1` [Example 246, 6-[4-(4-chlorophenyl)-2-(dimethylamino)-5-pyrimidinyl]-2-methyl-3(2H)-pyridazinone] returned a melting point of 166 °C.

Turning to `COc1ccc(-c2nc(N(C)C)ncc2-c2ccc(=O)n(C)n2)cc1` [Example 247, 6-[2-(Dimethylamino)-4-(4-methoxyphenyl)-5-pyrimidinyl]-2-methyl-3(2H)-pyridazinone], the melting point was 165 °C.

Consider `CN(C)c1ncc(-c2ccc(=O)n(C)n2)c(-c2cccc(F)c2)n1` [Example 248, 6-[2-(Dimethylamino)-4-(3-fluorophenyl)-5-pyrimidinyl]-2-methyl-3(2H)-pyridazinone], for which the melting point came out at 184 °C.

Take `COc1ccc(-c2nc(N(C)C)ncc2-c2ccc(=O)n(C)n2)cc1F` [Example 249, 6-[2-(Dimethylamino)-4-(3-fluoro-4-methoxyphenyl)-5-pyrimidinyl]-2-methyl-3(2H)-pyridazinone]: the melting point worked out at 158 °C.

Molecule `COCC(C)n1nc(-c2cnc(N)nc2-c2ccccc2)ccc1=O` (stereo not shown) [Example 250, 6-(2-Amino-4-phenyl-5-pyrimidinyl)-2-(2-methoxy-1-methylethyl)-3(2H)-pyridazinone] displayed a melting point of 180 to 181 °C.

The molecule `CC(CO)n1nc(-c2cnc(N)nc2-c2ccccc2)ccc1=O` (stereo not shown) [Example 251, 6-(2-amino-4-phenyl-5-pyrimidinyl)-2-(2-hydroxy-1-methylethyl)-3(2H)-pyridazinone] yielded a melting point of 222 to 223 °C.

For `CC(C)n1nc(-c2c(Cl)nc(N)nc2-c2ccccc2)ccc1=O` [Example 252, 6-(2-amino-4-chloro-6-phenyl-5-pyrimidinyl)-2-isopropyl-3(2H)-pyridazinone], the melting point lay within 235 to 237 °C.

Molecule `Cc1nc(N)nc(-c2ccccc2)c1-c1ccc(=O)n(C(C)C)n1` [Example 253, 6-(2-amino-4-methyl-6-phenyl-5-pyrimidinyl)-2-isopropyl-3(2H)-pyridazinone] registered a melting point of 213 to 215 °C.
